Reference: ChEMBL document CHEMBL1201861, “Genomics of Drug Sensitity in Cancer screening data, Wellcome Trust Sanger Institute”
pIC50: −log10 of the molar value.

Experiments:
Experiment in all cases: cells
[1] = tested on: COLO-824; assay type: functional, cell-based, Homo sapiens; settings: Homo sapiens, COLO-824
Description: SANGER: Inhibition of human COLO-824 cell growth in a cell viability assay.

[2] = tested on: CTB-1; assay type: functional, cell-based, Homo sapiens; settings: Homo sapiens, CTB-1
Description: SANGER: Inhibition of human CTB-1 cell growth in a cell viability assay.

[3] = tested on: CW-2; assay type: functional, cell-based, Homo sapiens; settings: Homo sapiens, CW-2;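 note: growth inhibition of CW-2 cells, read out by a cell viability assay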
Description: SANGER: Inhibition of human CW-2 cell growth in a cell viability assay.

[4] = tested on: D-247MG; assay type: functional, cell-based, Homo sapiens; settings: Homo sapiens, D-247MG
Description: SANGER: Inhibition of human D-247MG cell growth in a cell viability assay.

[5] = tested on: D-263MG; assay type: functional, cell-based, Homo sapiens; settings: Homo sapiens, D-263MG
Description: SANGER: Inhibition of human D-263MG cell growth in a cell viability assay.

[6] = tested on: EW-11; assay type: functional, cell-based, Homo sapiens; settings: Homo sapiens, EW-11;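 note: growth inhibition of human EW-11 cells, measured with a cell viability assay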
Description: SANGER: Inhibition of human EW-11 cell growth in a cell viability assay.

[7] = tested on: GOTO; assay type: functional, cell-based, Homo sapiens; settings: Homo sapiens, GOTO;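 note: growth inhibition of GOTO cells, read out by a cell viability assay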
Description: SANGER: Inhibition of human GOTO cell growth in a cell viability assay.

[8] = tested on: HAL-01; assay type: functional, cell-based, Homo sapiens; settings: Homo sapiens, HAL-01;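 note: growth inhibition of human HAL-01 cells, read out with a cell viability assay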
Description: SANGER: Inhibition of human HAL-01 cell growth in a cell viability assay.

[9] = tested on: HCC1187; assay type: functional, cell-based, Homo sapiens; settings: Homo sapiens, HCC1187;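 note: growth inhibition of HCC1187 cells, read out with a cell viability assay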
Description: SANGER: Inhibition of human HCC1187 cell growth in a cell viability assay.

[10] = tested on: IA-LM; assay type: functional, cell-based, Homo sapiens; settings: Homo sapiens, IA-LM;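 note: cell viability assay measuring growth inhibition of human IA-LM cells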
Description: SANGER: Inhibition of human IA-LM cell growth in a cell viability assay.

[11] = tested on: IST-MES1; assay type: functional, cell-based, Homo sapiens; settings: Homo sapiens, IST-MES1;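 note: growth inhibition of IST-MES1 cells, measured with a cell viability assay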
Description: SANGER: Inhibition of human IST-MES1 cell growth in a cell viability assay.

[12] = tested on: J-RT3-T3-5; assay type: functional, cell-based, Homo sapiens; settings: Homo sapiens, J-RT3-T3-5;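 note: cell viability assay measuring growth inhibition of human J-RT3-T3-5 cells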
Description: SANGER: Inhibition of human J-RT3-T3-5 cell growth in a cell viability assay.

[13] = tested on: JAR; assay type: functional, cell-based, Homo sapiens; settings: Homo sapiens, JAR;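 note: growth inhibition of human JAR cells determined with a cell viability assay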
Description: SANGER: Inhibition of human JAR cell growth in a cell viability assay.

[14] = tested on: KARPAS-45; assay type: functional, cell-based, Homo sapiens; settings: Homo sapiens, KARPAS-45;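 note: inhibition of cell line growth, read out through a viability assay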
Description: SANGER: Inhibition of human KARPAS-45 cell growth in a cell viability assay.

[15] = tested on: KLE; assay type: functional, cell-based, Homo sapiens; settings: Homo sapiens, KLE;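 note: growth inhibition of human KLE cells, read out with a cell viability assay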
Description: SANGER: Inhibition of human KLE cell growth in a cell viability assay.

[16] = tested on: KY821; assay type: functional, cell-based, Homo sapiens; settings: Homo sapiens, KY821;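 note: growth inhibition of human KY821 cells, read out by a cell viability assay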
Description: SANGER: Inhibition of human KY821 cell growth in a cell viability assay.

[17] = tested on: L-363; assay type: functional, cell-based, Homo sapiens; settings: Homo sapiens, L-363
Description: SANGER: Inhibition of human L-363 cell growth in a cell viability assay.

[18] = tested on: LNCaP-Clone-FGC; assay type: functional, cell-based, Homo sapiens; settings: Homo sapiens, LNCaP-Clone-FGC
Description: SANGER: Inhibition of human LNCaP-Clone-FGC cell growth in a cell viability assay.

[19] = tested on: LS-123; assay type: functional, cell-based, Homo sapiens; settings: Homo sapiens, LS-123
Description: SANGER: Inhibition of human LS-123 cell growth in a cell viability assay.

[20] = tested on: LU-139; assay type: functional, cell-based, Homo sapiens; settings: Homo sapiens, LU-139
Description: SANGER: Inhibition of human LU-139 cell growth in a cell viability assay.

[21] = tested on: MEG-01; assay type: functional, cell-based, Homo sapiens; settings: Homo sapiens, MEG-01;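 note: growth inhibition of MEG-01 cells, read out by a cell viability assay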
Description: SANGER: Inhibition of human MEG-01 cell growth in a cell viability assay.

[22] = tested on: MFM-223; assay type: functional, cell-based, Homo sapiens; settings: Homo sapiens, MFM-223
Description: SANGER: Inhibition of human MFM-223 cell growth in a cell viability assay.

[23] = tested on: ML-2; assay type: functional, cell-based, Homo sapiens; settings: Homo sapiens, ML-2;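 note: growth inhibition of ML-2 cells, measured with a cell viability readout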
Description: SANGER: Inhibition of human ML-2 cell growth in a cell viability assay.

[24] = tested on: MOLT-16; assay type: functional, cell-based, Homo sapiens; settings: Homo sapiens, MOLT-16;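 note: growth inhibition of human MOLT-16 cells, read out with a cell viability assay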
Description: SANGER: Inhibition of human MOLT-16 cell growth in a cell viability assay.

[25] = tested on: NB12; assay type: functional, cell-based, Homo sapiens; settings: Homo sapiens, NB12;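 note: growth inhibition of human NB12 cells, read out by a cell viability assay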
Description: SANGER: Inhibition of human NB12 cell growth in a cell viability assay.

[26] = tested on: NCI-H526; assay type: functional, cell-based, Homo sapiens; settings: Homo sapiens, NCI-H526;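 note: growth inhibition of the human NCI-H526 cell line, measured by a cell viability assay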
Description: SANGER: Inhibition of human NCI-H526 cell growth in a cell viability assay.

[27] = tested on: NCI-N87; assay type: functional, cell-based, Homo sapiens; settings: Homo sapiens, NCI-N87;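 note: growth inhibition of human NCI-N87 cells, read out with a cell viability assay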
Description: SANGER: Inhibition of human NCI-N87 cell growth in a cell viability assay.

[28] = tested on: SNU-5; assay type: functional, cell-based, Homo sapiens; settings: Homo sapiens, SNU-5;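 note: cell viability readout used to measure growth inhibition in human NCI-SNU-5 cells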
Description: SANGER: Inhibition of human NCI-SNU-5 cell growth in a cell viability assay.

[29] = tested on: NH-12; assay type: functional, cell-based, Homo sapiens; settings: Homo sapiens, NH-12;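 note: growth inhibition of NH-12 cells, read out with a cell viability assay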
Description: SANGER: Inhibition of human NH-12 cell growth in a cell viability assay.

[30] = tested on: NMC-G1; assay type: functional, cell-based, Homo sapiens; settings: Homo sapiens, NMC-G1;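 note: growth inhibition of the NMC-G1 cell line, measured with a cell viability read-out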
Description: SANGER: Inhibition of human NMC-G1 cell growth in a cell viability assay.

[31] = tested on: ONS-76; assay type: functional, cell-based, Homo sapiens; settings: Homo sapiens, ONS-76;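 note: growth inhibition of human ONS-76 cells, read out with a cell viability assay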
Description: SANGER: Inhibition of human ONS-76 cell growth in a cell viability assay.

[32] = tested on: RCC10RGB; assay type: functional, cell-based, Homo sapiens; settings: Homo sapiens, RCC10RGB;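 note: growth inhibition of human RCC10RGB cells, read out by a cell viability assay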
Description: SANGER: Inhibition of human RCC10RGB cell growth in a cell viability assay.

[33] = tested on: RH-1; assay type: functional, cell-based, Homo sapiens; settings: Homo sapiens, RH-1;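 note: growth inhibition of human RH-1 cells, read out with a cell viability assay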
Description: SANGER: Inhibition of human RH-1 cell growth in a cell viability assay.

[34] = tested on: RPMI-8866; assay type: functional, cell-based, Homo sapiens; settings: Homo sapiens, RPMI-8866
Description: SANGER: Inhibition of human RPMI-8866 cell growth in a cell viability assay.

[35] = tested on: SK-N-FI; assay type: functional, cell-based, Homo sapiens; settings: Homo sapiens, SK-N-FI;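 note: cell viability assay measuring growth inhibition of human SK-N-FI cells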
Description: SANGER: Inhibition of human SK-N-FI cell growth in a cell viability assay.

[36] = tested on: SK-NEP-1; assay type: functional, cell-based, Homo sapiens; settings: Homo sapiens, SK-NEP-1;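 note: growth inhibition of human SK-NEP-1 cells, read out by a cell viability assay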
Description: SANGER: Inhibition of human SK-NEP-1 cell growth in a cell viability assay.

[37] = tested on: SNU-C2B; assay type: functional, cell-based, Homo sapiens; settings: Homo sapiens, SNU-C2B;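 note: cell viability readout used to measure compound-driven suppression of SNU-C2B cell proliferation, IC50 marking half-maximal growth inhibition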
Description: SANGER: Inhibition of human SNU-C2B cell growth in a cell viability assay.

[38] = tested on: TE-1; assay type: functional, cell-based, Homo sapiens; settings: Homo sapiens, TE-1;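 note: growth inhibition of the human TE-1 cell line, read out with a cell viability assay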
Description: SANGER: Inhibition of human TE-1 cell growth in a cell viability assay.

[39] = tested on: 8-MG-BA; assay type: functional, cell-based, Homo sapiens; settings: Homo sapiens, 8-MG-BA;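 note: growth inhibition of 8-MG-BA cells, read out with a cell viability assay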
Description: SANGER: Inhibition of human 8-MG-BA cell growth in a cell viability assay.

[40] = tested on: BB65-RCC; assay type: functional, cell-based, Homo sapiens; settings: Homo sapiens, BB65-RCC;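 note: growth inhibition of the cell line, measured with a cell viability assay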
Description: SANGER: Inhibition of human BB65-RCC cell growth in a cell viability assay.

[41] = tested on: BE-13; assay type: functional, cell-based, Homo sapiens; settings: Homo sapiens, BE-13;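 note: growth inhibition of human BE-13 cells, measured with a cell viability assay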
Description: SANGER: Inhibition of human BE-13 cell growth in a cell viability assay.

[42] = tested on: BV-173; assay type: functional, cell-based, Homo sapiens; settings: Homo sapiens, BV-173
Description: SANGER: Inhibition of human BV-173 cell growth in a cell viability assay.

[43] = tested on: Becker; assay type: functional, cell-based, Homo sapiens; settings: Homo sapiens, Becker;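 note: growth inhibition of Becker cells, read out with a cell viability assay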
Description: SANGER: Inhibition of human Becker cell growth in a cell viability assay.

[44] = tested on: C8166; assay type: functional, cell-based, Homo sapiens; settings: Homo sapiens, C8166;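 note: growth inhibition of human C8166 cells measured by a cell viability assay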
Description: SANGER: Inhibition of human C8166 cell growth in a cell viability assay.

[45] = tested on: TE-6; assay type: functional, cell-based, Homo sapiens; settings: Homo sapiens, TE-6;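 note: growth inhibition of TE-6 cells, read out with a cell viability assay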
Description: SANGER: Inhibition of human TE-6 cell growth in a cell viability assay.

[46] = tested on: COLO-684; assay type: functional, cell-based, Homo sapiens; settings: Homo sapiens, COLO-684
Description: SANGER: Inhibition of human COLO-684 cell growth in a cell viability assay.

[47] = tested on: DMS-79; assay type: functional, cell-based, Homo sapiens; settings: Homo sapiens, DMS-79;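 note: growth inhibition measured with a cell viability assay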
Description: SANGER: Inhibition of human DMS-79 cell growth in a cell viability assay.

[48] = tested on: HuTu80; assay type: functional, cell-based, Homo sapiens, HUTU-80; settings: Homo sapiens, HuTu80;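 note: growth inhibition of HuTu80 human cells, determined with a cell viability readout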
Description: SANGER: Inhibition of human HUTU-80 cell growth in a cell viability assay.

## Cn1cnc2c(F)c(Nc3ccc(Br)cc3Cl)c(C(=O)NOCCO)cc21 [SELUMETINIB]
[1]
  pIC50: < 5.40
[2]
  pIC50: < 5.40
[3]
  pIC50: < 5.40
[4]
  pIC50: < 5.40
[5]
  pIC50: 5.93
[6]
  pIC50: < 5.40
[7]
  pIC50: < 5.40
[8]
  pIC50: 5.77
[9]
  pIC50: < 5.40
[10]
  pIC50: < 5.40
[11]
  pIC50: < 5.40
[12]
  pIC50: < 5.40
[13]
  pIC50: < 5.40
[14]
  pIC50: 5.68
[15]
  pIC50: < 5.40
[16]
  pIC50: 6.97
[17]
  pIC50: < 5.40
[18]
  pIC50: < 5.40
[19]
  pIC50: 5.44
[20]
  pIC50: < 5.40
[21]
  pIC50: 5.79
[22]
  pIC50: < 5.40
[23]
  pIC50: 6.53
[24]
  pIC50: < 5.40
[25]
  pIC50: < 5.40
[26]
  pIC50: < 5.40
[27]
  pIC50: < 5.40
[28]
  pIC50: 5.44
[29]
  pIC50: < 5.40
[30]
  pIC50: < 5.40
[31]
  pIC50: 6.61
[32]
  pIC50: < 5.40
[33]
  pIC50: < 5.40
[34]
  pIC50: < 5.40
[35]
  pIC50: < 5.40
[36]
  pIC50: < 5.40
[37]
  pIC50: < 5.40
[38]
  pIC50: < 5.40
[39]
  pIC50: < 5.40
[40]
  pIC50: 5.74
[41]
  pIC50: < 5.40
[42]
  pIC50: 6.13
[43]
  pIC50: < 5.40
[44]
  pIC50: < 5.40
[45]
  pIC50: < 5.40
[46]
  pIC50: < 5.40

## CCN(CC)CCCCNc1ncc2cc(-c3cc(OC)cc(OC)c3)c(NC(=O)NC(C)(C)C)nc2n1 [PD-173074]
[1]
  pIC50: < 5.70
[2]
  pIC50: < 5.70
[3]
  pIC50: < 5.70
[4]
  pIC50: < 5.70
[5]
  pIC50: 6.15
[6]
  pIC50: < 5.70
[7]
  pIC50: < 5.70
[8]
  pIC50: < 5.70
[9]
  pIC50: < 5.70
[10]
  pIC50: < 5.70
[11]
  pIC50: < 5.70
[12]
  pIC50: < 5.70
[13]
  pIC50: < 5.70
[14]
  pIC50: < 5.70
[15]
  pIC50: < 5.70
[16]
  pIC50: < 5.70
[17]
  pIC50: < 5.70
[18]
  pIC50: < 5.70
[19]
  pIC50: < 5.70
[20]
  pIC50: < 5.70
[21]
  pIC50: < 5.70
[22]
  pIC50: 6.67
[23]
  pIC50: < 5.70
[24]
  pIC50: < 5.70
[25]
  pIC50: < 5.70
[26]
  pIC50: < 5.70
[27]
  pIC50: < 5.70
[28]
  pIC50: < 5.70
[29]
  pIC50: < 5.70
[30]
  pIC50: < 5.70
[31]
  pIC50: < 5.70
[32]
  pIC50: < 5.70
[33]
  pIC50: < 5.70
[34]
  pIC50: < 5.70
[35]
  pIC50: < 5.70
[36]
  pIC50: < 5.70
[37]
  pIC50: < 5.70
[38]
  pIC50: < 5.70
[39]
  pIC50: < 5.70
[40]
  pIC50: < 5.70
[41]
  pIC50: < 5.70
[42]
  pIC50: 6.07
[43]
  pIC50: < 5.70
[44]
  pIC50: < 5.70
[45]
  pIC50: < 5.70
[46]
  pIC50: < 5.70

## CN(C)C(=N)NC(=N)N [METFORMIN]
[1]
  pIC50: < 1.70
[2]
  pIC50: < 1.70
[3]
  pIC50: 2.39
[4]
  pIC50: < 1.70
[5]
  pIC50: < 1.70
[47]
  pIC50: 2.22
[6]
  pIC50: < 1.70
[7]
  pIC50: < 1.70
[8]
  pIC50: < 1.70
[9]
  pIC50: 1.85
[48]
  pIC50: < 1.70
[10]
  pIC50: < 1.70
[11]
  pIC50: < 1.70
[12]
  pIC50: < 1.70
[13]
  pIC50: 2.04
[14]
  pIC50: 2.52
[15]
  pIC50: < 1.70
[16]
  pIC50: 2.81
[17]
  pIC50: 2.17
[18]
  pIC50: 2.28
[19]
  pIC50: 1.76
[20]
  pIC50: < 1.70
[21]
  pIC50: 2.06
[22]
  pIC50: < 1.70
[23]
  pIC50: 2.83
[24]
  pIC50: < 1.70
[26]
  pIC50: 1.79
[27]
  pIC50: < 1.70
[28]
  pIC50: 2.43
[30]
  pIC50: < 1.70
[31]
  pIC50: < 1.70
[34]
  pIC50: 2.04
[35]
  pIC50: < 1.70
[36]
  pIC50: 1.82
[37]
  pIC50: < 1.70
[38]
  pIC50: < 1.70
[39]
  pIC50: < 1.70
[41]
  pIC50: 1.74
[42]
  pIC50: 2.52
[43]
  pIC50: < 1.70
[45]
  pIC50: 1.85
[46]
  pIC50: < 1.70
